Results as given in PubChem BioAssay (NCI).
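48-hour exposure; five concentrations; linearly interpolated endpoints. GI50 = concentration required for 50% inhibition of growth. Definition used: TGI = concentration required for complete inhibition of growth.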

Columns and labels:
Assay in all cases: growth of human tumour cells (NCI), 48 h
UO-31 renal = test system: UO-31 renal
OVCAR-4 ovarian = test system: OVCAR-4 ovarian
NCI/ADR-RES ovarian = test system: NCI/ADR-RES ovarian
SK-OV-3 ovarian = test system: SK-OV-3 ovarian
LOX IMVI melanoma = test system: LOX IMVI melanoma
ACHN renal = test system: ACHN renal
OVCAR-8 ovarian = test system: OVCAR-8 ovarian
SK-MEL-28 melanoma = test system: SK-MEL-28 melanoma
SW-620 colon = test system: SW-620 colon
NCI-H460 lung = test system: NCI-H460 lung

SMILES	GI50 (UO-31 renal)	TGI (UO-31 renal)	GI50 (OVCAR-4 ovarian)	TGI (OVCAR-4 ovarian)	GI50 (NCI/ADR-RES ovarian)	TGI (NCI/ADR-RES ovarian)	GI50 (SK-OV-3 ovarian)	TGI (SK-OV-3 ovarian)	GI50 (LOX IMVI melanoma)	TGI (LOX IMVI melanoma)	GI50 (ACHN renal)	TGI (ACHN renal)	GI50 (OVCAR-8 ovarian)	TGI (OVCAR-8 ovarian)	GI50 (SK-MEL-28 melanoma)	TGI (SK-MEL-28 melanoma)	GI50 (SW-620 colon)	TGI (SW-620 colon)	GI50 (NCI-H460 lung)	TGI (NCI-H460 lung)
CSc1ccc(C2=NN(C(=O)c3ccc(N)cc3)C(c3ccc(F)cc3)C2)cc1 (stereo not given)	10.6 µM	24 µM	15 µM	31.9 µM	16.1 µM	38.5 µM	16.2 µM	31.7 µM	2.53 µM	6.84 µM	7.35 µM	19.7 µM	16.1 µM	32.5 µM	18.4 µM	34.7 µM	6.27 µM	26.3 µM	7.83 µM	35.2 µM
CS(=O)(=O)c1nc(Cl)c(Cl)c(C#N)c1Cl	–	4.31 µM	–	3.34 µM	–	6.19 µM	–	10.7 µM	–	4.3 µM	–	5.26 µM	–	9.77 µM	–	4.75 µM	–	3.13 µM	–	32.4 µM
COC(=O)Nc1nc2ccc(Sc3ccccc3)cc2[nH]1	0.848 µM	20.5 µM	0.856 µM	6.34 µM	0.0674 µM	0.461 µM	0.179 µM	0.684 µM	0.487 µM	17.2 µM	1.19 µM	22.9 µM	0.298 µM	3.99 µM	0.387 µM	15.5 µM	0.107 µM	> 48.3 µM	0.247 µM	11.6 µM
C=C(C)[C@@H]1CC[C@]2(C)[C@H](C=CC3=C4C[C@@](C)(CO)CC[C@]4(C)CC[C@]32C)[C@@]1(C)CCCN	1.34 µM	2.65 µM	1.53 µM	3.09 µM	1.74 µM	3.37 µM	1.72 µM	3.17 µM	1.37 µM	2.7 µM	1.76 µM	3.14 µM	2.13 µM	4.61 µM	1.82 µM	3.25 µM	1.56 µM	3.04 µM	1.71 µM	3.33 µM
O=[N+]([O-])c1ccc(-c2ccccc2)c([As](=O)(O)O)c1	12.3 µM	44.8 µM	14.6 µM	52 µM	22.6 µM	> 100 µM	24.2 µM	91.5 µM	8.15 µM	46.9 µM	13.7 µM	30.1 µM	22.6 µM	> 100 µM	18 µM	50.3 µM	7.82 µM	24.4 µM	28 µM	> 100 µM
N#CC(C#N)=Cc1ccc(-c2ccc(-c3nc4ccccc4o3)cc2)o1	58.4 µM	> 100 µM	> 100 µM	> 100 µM	20.8 µM	50.1 µM	38.3 µM	> 100 µM	16.6 µM	44.8 µM	50.8 µM	> 100 µM	29.9 µM	> 100 µM	> 100 µM	> 100 µM	20.5 µM	> 100 µM	38.4 µM	> 100 µM
